Test results: the supplement of paper PMC10307832

Key:
Assay in all cases: relative viability (nuclei count vs DMSO), 5 days (fraction); higher = more cells survive
[1] = compound: C/C(=N\NC(=S)N1CCC1)/C2=CC=CC=N2 + Nc1nc2[nH]cc(CCc3ccc(C(=O)N[C@@H](CCC(=O)O)C(=O)O)cc3)c2c(=O)[nH]1 [Pemetrexed] (partner 0.2 µM)
Procedure, shortened: (§1)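 Relative viability divides the nuclei count in treated wells by that in vehicle wells. Lung cancer cell lines were seeded in 1536-well plates, dosed by pin tool the next day, and fixed and stained after 5 days in one step with final 0.05% Triton X-100, 1% formaldehyde and 1 ug/ml Hoechst. Dosing was a single drug or a fixed anchor-drug dose plus five library-drug doses (not always all listed) in √10 steps, and values are medians of duplicate plates imaged at 4×.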

[2] = compound: C/C(=N\NC(=S)N1CCC1)/C2=CC=CC=N2 + O=C(CCCCCCC(=O)Nc1ccccc1)NO [Vorinostat] (partner 1 µM)
Procedure, shortened: as §1

[3] = compound: C/C(=N\NC(=S)N1CCC1)/C2=CC=CC=N2 + C[C@]1(O)C[C@@H](c2nc(-c3ccc4ccc(-c5ccccc5)nc4c3)c3c(N)nccn32)C1 [Linsitinib] (partner 1 µM)
Procedure, shortened: as §1

[4] = compound: C/C(=N\NC(=S)N1CCC1)/C2=CC=CC=N2 + CC1(C)CCC(c2ccc(Cl)cc2)=C(CN2CCN(c3ccc(C(=O)NS(=O)(=O)c4ccc(N[C@H](CCN5CCOCC5)CSc5ccccc5)c(S(=O)(=O)C(F)(F)F)c4)cc3)CC2)C1 [Navitoclax] (partner 0.5 µM)
Procedure, shortened: as §1

Cell Line | relative viability ([1]; first compound 0.05 µM) | relative viability ([1]; first compound 0.1581 µM) | relative viability ([1]; first compound 0.5 µM) | relative viability ([1]; first compound 1.581 µM) | relative viability ([1]; first compound 5 µM) | relative viability ([2]; first compound 0.05 µM) | relative viability ([2]; first compound 0.1581 µM) | relative viability ([2]; first compound 0.5 µM) | relative viability ([2]; first compound 1.581 µM) | relative viability ([2]; first compound 5 µM) | relative viability ([3]; first compound 0.05 µM) | relative viability ([3]; first compound 0.1581 µM) | relative viability ([3]; first compound 0.5 µM) | relative viability ([3]; first compound 1.581 µM) | relative viability ([3]; first compound 5 µM) | relative viability ([4]; first compound 0.05 µM) | relative viability ([4]; first compound 0.1581 µM) | relative viability ([4]; first compound 0.5 µM) | relative viability ([4]; first compound 1.581 µM) | relative viability ([4]; first compound 5 µM)
201T | 0.292 | 0.315 | 0.289 | 0.294 | 0.286 | 0.351 | 0.349 | 0.315 | 0.301 | 0.281 | 0.742 | 1 | 0.564 | 0.503 | 0.41 | 0.891 | 1.18 | 0.708 | 0.516 | 0.453
A-427 | 0.191 | 0.209 | 0.195 | 0.151 | 0.188 | 0.187 | 0.198 | 0.171 | 0.158 | 0.186 | 0.18 | 0.687 | 0.148 | 0.157 | 0.139 | 0.182 | 0.664 | 0.141 | 0.125 | 0.133
ABC-1 |  |  |  |  |  | 0.268 | 0.339 | 0.308 | 0.275 | 0.302 | 0.247 | 0.239 | 0.24 | 0.221 | 0.207 |  |  |  |  | 
BEN | 0.256 | 0.318 | 0.262 | 0.279 | 0.311 | 0.233 | 0.293 | 0.296 | 0.281 | 0.3 | 0.168 | 0.171 | 0.167 | 0.174 | 0.189 | 0.0467 | 0.0428 | 0.0598 | 0.115 | 0.114
CAL-12T | 0.14 | 0.132 | 0.173 | 0.143 | 0.122 | 0.0882 | 0.112 | 0.127 | 0.101 | 0.114 | 0.167 | 0.165 | 0.13 | 0.16 | 0.142 | 0.168 | 0.139 | 0.171 | 0.144 | 0.118
COR-L23 | 0.149 | 0.169 | 0.163 | 0.105 | 0.123 | 0.11 | 0.099 | 0.0957 | 0.0832 | 0.0963 | 0.129 | 0.11 | 0.106 | 0.0712 | 0.0637 | 0.108 | 0.111 | 0.0885 | 0.077 | 0.0905
COR-L 105 | 0.399 | 0.389 | 0.326 | 0.358 | 0.335 | 0.345 | 0.346 | 0.345 | 0.304 | 0.291 | 0.343 | 0.265 | 0.265 | 0.332 | 0.261 | 0.288 | 0.316 | 0.26 | 0.236 | 0.317
Calu-6 |  |  |  |  |  |  |  |  |  |  | 0.11 | 0.1 | 0.127 | 0.115 | 0.108 | 0.106 | 0.122 | 0.123 | 0.141 | 0.126
ChaGo-K-1 | 0.172 | 0.171 | 0.18 | 0.161 | 0.162 | 0.164 | 0.159 | 0.155 | 0.143 | 0.165 |  |  |  |  |  | 0.293 | 0.47 | 0.27 | 0.218 | 0.374
EKVX | 0.148 | 0.163 | 0.0961 | 0.166 | 0.175 | 0.196 | 0.223 | 0.186 | 0.205 | 0.221 | 0.141 | 0.122 | 0.0907 | 0.135 | 0.141 | 0.127 | 0.131 | 0.119 | 0.132 | 0.137
EMC-BAC-2 | 0.26 | 0.255 | 0.275 | 0.228 | 0.259 | 0.193 | 0.199 | 0.134 | 0.153 | 0.135 | 0.365 | 0.56 | 0.144 | 0.178 | 0.191 | 0.25 | 0.645 | 0.162 | 0.21 | 0.168
EPLC-272H | 0.165 | 0.179 | 0.149 | 0.0756 | 0.265 | 0.0931 | 0.159 | 0.149 | 0.0509 | 0.107 | 0.16 | 0.424 | 0.173 | 0.149 | 0.16 | 0.108 | 0.356 | 0.138 | 0.125 | 0.151
H3255 | 0.359 | 0.349 | 0.355 | 0.268 | 0.255 | 0.334 | 0.288 | 0.179 | 0.274 | 0.289 | 0.278 | 0.269 | 0.276 | 0.197 | 0.21 | 0.103 | 0.123 | 0.101 | 0.094 | 0.148
HARA | 0.218 | 0.174 | 0.212 | 0.141 | 0.165 | 0.0948 | 0.381 | 0.0375 | 0.076 | 0.0809 | 0.212 | 0.0896 | 0.163 | 0.109 | 0.08 | 0.361 | 0.165 | 0.212 | 0.124 | 0.11
HCC-15 | 0.198 | 0.11 | 0.13 | 0.113 | 0.093 | 0.204 | 0.275 | 0.145 | 0.139 | 0.116 | 0.237 | 0.416 | 0.103 | 0.102 | 0.0909 | 0.198 | 0.392 | 0.0695 | 0.092 | 0.0784
HCC-44 | 0.599 | 0.52 | 0.549 | 0.547 | 0.424 | 0.894 | 1.02 | 0.51 | 0.471 | 0.411 | 0.553 | 0.141 | 0.143 | 0.154 | 0.183 | 0.782 | 0.311 | 0.194 | 0.222 | 0.258
HCC-78 | 0.96 | 0.872 | 0.854 | 0.84 | 0.863 | 0.427 | 0.414 | 0.338 | 0.23 | 0.231 | 0.299 | 0.251 | 0.189 | 0.161 | 0.175 | 0.492 | 0.245 | 0.218 | 0.189 | 0.12
